Assay results published in article PMC6934184, “Selective DNA-PKcs inhibition extends the therapeutic index of localized radiotherapy and chemotherapy” (The Journal of Clinical Investigation, 2019).

Molecular target: T1, INSR (Homo sapiens, UniProt P06213)
T1 construct: purchased Thermo Fisher Scientific (Life Technologies) SelectScreen
Test: SelectScreen Z'LYTE
Assay type: biochemical
How it was run: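 NU5455 was profiled across the SelectScreen Broad panel of kinase activity and binding assays. Z'LYTE reactions such as CSF1R ran at apparent Km ATP, while the Adapta CAMK1 assay used ATP listed as 10. Values are given as percent.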

T1 sequence (P06213 28-1382): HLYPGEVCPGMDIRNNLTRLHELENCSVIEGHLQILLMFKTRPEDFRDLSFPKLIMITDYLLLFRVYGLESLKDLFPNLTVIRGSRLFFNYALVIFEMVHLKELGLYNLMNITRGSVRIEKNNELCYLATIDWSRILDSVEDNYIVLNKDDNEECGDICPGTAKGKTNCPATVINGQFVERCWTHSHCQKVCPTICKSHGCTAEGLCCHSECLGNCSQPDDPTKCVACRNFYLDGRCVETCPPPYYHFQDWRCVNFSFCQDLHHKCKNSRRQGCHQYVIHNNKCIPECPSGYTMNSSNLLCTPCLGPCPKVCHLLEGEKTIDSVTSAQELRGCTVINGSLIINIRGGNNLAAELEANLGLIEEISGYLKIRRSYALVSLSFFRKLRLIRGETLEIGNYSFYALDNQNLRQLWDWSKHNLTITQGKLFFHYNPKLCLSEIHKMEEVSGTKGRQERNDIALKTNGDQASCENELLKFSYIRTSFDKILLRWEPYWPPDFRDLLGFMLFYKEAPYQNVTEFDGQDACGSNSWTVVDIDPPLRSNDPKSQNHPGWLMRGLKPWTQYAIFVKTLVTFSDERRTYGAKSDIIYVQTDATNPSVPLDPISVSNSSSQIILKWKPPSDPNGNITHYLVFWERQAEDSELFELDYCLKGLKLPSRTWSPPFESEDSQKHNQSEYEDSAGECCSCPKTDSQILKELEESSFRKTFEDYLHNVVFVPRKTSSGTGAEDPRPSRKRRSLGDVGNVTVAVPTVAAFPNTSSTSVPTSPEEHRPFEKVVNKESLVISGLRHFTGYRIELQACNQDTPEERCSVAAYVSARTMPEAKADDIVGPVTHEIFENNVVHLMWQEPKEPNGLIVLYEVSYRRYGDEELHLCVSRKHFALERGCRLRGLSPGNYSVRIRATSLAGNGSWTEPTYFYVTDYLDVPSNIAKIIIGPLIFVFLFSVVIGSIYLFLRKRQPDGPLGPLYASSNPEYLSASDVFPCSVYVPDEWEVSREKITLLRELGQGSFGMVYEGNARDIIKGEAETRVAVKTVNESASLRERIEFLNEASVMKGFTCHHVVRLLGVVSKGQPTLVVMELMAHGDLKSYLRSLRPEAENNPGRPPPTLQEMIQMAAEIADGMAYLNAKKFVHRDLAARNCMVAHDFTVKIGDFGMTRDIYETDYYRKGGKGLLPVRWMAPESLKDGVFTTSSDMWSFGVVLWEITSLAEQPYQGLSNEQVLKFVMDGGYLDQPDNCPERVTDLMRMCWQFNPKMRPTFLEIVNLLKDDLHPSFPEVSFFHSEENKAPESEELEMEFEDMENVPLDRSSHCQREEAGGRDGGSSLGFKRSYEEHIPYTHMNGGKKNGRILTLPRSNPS

`CN(C(=O)CN1CCOCC1)c1ccc2sc3c(-c4cccc5c(=O)cc(N6CC7CCC(C6)O7)oc45)cccc3c2c1` [NU5455] was tested. Which inhibition at 1 µM did it give?
Its inhibition at 1 µM is 4.1%.
